Each structure is given as a SMILES string. Counter-ions that a name gives are not always drawn.

By inhibition is commonly meant how much of the control response was suppressed.

Sequence of PDE4B (Q07343 whole entry, species assumed): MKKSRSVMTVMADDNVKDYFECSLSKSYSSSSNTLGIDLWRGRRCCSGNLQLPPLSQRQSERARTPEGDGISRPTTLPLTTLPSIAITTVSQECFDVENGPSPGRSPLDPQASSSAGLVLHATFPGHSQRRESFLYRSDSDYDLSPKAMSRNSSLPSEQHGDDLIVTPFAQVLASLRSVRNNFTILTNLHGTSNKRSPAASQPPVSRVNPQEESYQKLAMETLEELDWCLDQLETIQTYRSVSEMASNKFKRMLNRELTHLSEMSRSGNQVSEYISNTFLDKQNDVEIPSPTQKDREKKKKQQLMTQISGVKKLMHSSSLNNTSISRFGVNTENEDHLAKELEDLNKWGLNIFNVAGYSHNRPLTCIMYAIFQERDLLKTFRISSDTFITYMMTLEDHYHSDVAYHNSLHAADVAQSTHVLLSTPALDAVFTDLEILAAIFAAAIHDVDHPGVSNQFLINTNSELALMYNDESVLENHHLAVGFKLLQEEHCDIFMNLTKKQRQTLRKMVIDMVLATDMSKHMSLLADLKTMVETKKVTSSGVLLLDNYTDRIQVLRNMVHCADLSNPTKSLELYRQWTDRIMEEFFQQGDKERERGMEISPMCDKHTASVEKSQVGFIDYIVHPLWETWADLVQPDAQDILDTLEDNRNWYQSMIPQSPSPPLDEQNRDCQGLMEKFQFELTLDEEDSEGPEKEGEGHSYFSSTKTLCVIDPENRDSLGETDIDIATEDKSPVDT

In one assay the target is PDE4B (Homo sapiens, UniProt Q07343). Kind of assay: Scintillation Proximity (SPA) assay, inhibition of PDE4B at 1 μM. The class given is biochemical. Particulars: Table C; test substance 1 μM; one hour incubation with [H3]-cAMP at 30° C. The method, then: The inhibitions (in %) at 1 μM of the individual Example substances are included in the following Tables of Examples and were determined as follows:
The Scintilation Proximity (SPA) Assays (GE Healthcare, No. TRKQ7090) make use of the different affinities of cyclic 3″-5″-adenosine monophosphate (cAMP, low affinity) and linear 5′-adenosine monophosphate (AMP, high affinity) for yttrium silicate scintillator beads. The cAMP specific phosphodiesterase (PDE) PDE4B cleaves the 3′-phosphoester bond of the tritium-labelled [H3]-cAMP to form the [H3]-5′-AMP. Because of its higher affinity for the scintillator beads this [H3]-AMP accumulates on the beads and causes scintillation events (flashes of light) which are measured in a Wallac Microbeta Scintillation Counter.
The test starts with one hour's incubation of [H3]-cAMP with the PDE4B enzyme in assay buffer at 30° C., once with the Example substance that is to be tested (in a concentration of 1 μM) and once without the Example substance that is to be tested. After this incubation the reaction is stopped by the addition of the beads. The beads are given an opportunity to settle over the next 45 minutes, then they are measured in the Scintillation Counter. If the substance is capable of inhibiting the enzymatic activity of the PDE4B, less [H3]-AMP is formed during the incubation phase and fewer scintillation events can be measured.
(In general: In a scintillation proximity assay essentially only radioactivity close to the scintillant gives light.)
`CC(C)[C@H](CO)Nc1nc(N2CCn3cnnc3C2)nc2c1[S+]([O-])CC2` (stereo partly drawn) [Example 45, (R)-2-[2-(5,6-DIHYDRO-8H-[1,2,4]TRIAZOLO[4,3-A]PYRAZIN-7-YL)-5-OXO-6,7-DIHYDRO-5H-5λ^4-THIENO[3,2-D]PYRIMIDIN-4-YLAMINO]-3-METHYL-BUTAN-1-OL TRIFLUOROACETATE] showed an inhibition at 1 µM of 55%.

The assay is the same for the next values; noted with them: Table D; test substance 1 μM; one hour incubation with [H3]-cAMP at 30° C.
With `CCOC(=O)c1cn2c(n1)CN(c1nc3c(c(N[C@H]4CCC(=O)N(C)C4)n1)[S+]([O-])CC3)CC2` (stereo partly shown) [Example 46], the inhibition at 1 µM was 97%. The compound `CN1C[C@@H](Nc2nc(N3CCn4c(nnc4-c4ccc(F)cc4)C3)nc3c2[S+]([O-])CC3)CCC1=O` (stereo partly shown) [Example 47] gave an inhibition at 1 µM of 96%. For the compound `O=C(c1cn2c(n1)CN(c1nc3c(c(NC4CCOCC4)n1)[S+]([O-])CC3)CC2)N1CCOCC1` (stereo not shown) [Example 48, Morpholin-4-yl-{7-[5-oxo-4-(tetrahydropyran-4-ylamino)-6,7-dihydro-5H-5λ^4-thieno[3,2-d]pyrimidin-2-yl]-5,6,7,8-tetrahydroimidazo[1,2-a]pyrazin-2-yl}-methanone], testing at 1 µM gave an inhibition of 93%.

For the compound `CN1CCC(N(C)C(=O)c2cn3c(n2)CN(c2nc4c(c(NC5CCOCC5)n2)[S+]([O-])CC4)CC3)CC1` (stereo not shown) [Example 49], the inhibition at 1 µM worked out at 93%.

Turning to `CN(C(=O)c1cn2c(n1)CN(c1nc3c(c(NC4CCOCC4)n1)[S+]([O-])CC3)CC2)C1CC1` (stereo not shown) [Example 50], the inhibition at 1 µM was 93%.

In turn, `Cc1nn(C)c(C)c1CNC(=O)c1cn2c(n1)CN(c1nc3c(c(NC4CCOCC4)n1)[S+]([O-])CC3)CC2` (stereo not shown) [Example 51] registered an inhibition at 1 µM of 94%. Regarding `Cc1nn(C)cc1C(C)NC(=O)c1cn2c(n1)CN(c1nc3c(c(NC4CCOCC4)n1)[S+]([O-])CC3)CC2` (stereo not shown) [Example 52], the inhibition at 1 µM came to 93%. On the same count and under the same terms, for `CC(C)(NC(=O)c1cn2c(n1)CN(c1nc3c(c(NC4CCOCC4)n1)[S+]([O-])CC3)CC2)c1ccncc1` (stereo not shown) [Example 53] the value was 94%; for `CN(C(=O)c1cn2c(n1)CN(c1nc3c(c(NC4CCOCC4)n1)[S+]([O-])CC3)CC2)C1CCOCC1` (stereo not shown) [Example 54], 94%; for `O=C(c1cn2c(n1)CN(c1nc3c(c(NC4CCOCC4)n1)[S+]([O-])CC3)CC2)N(C1CCOCC1)C1CC1` (stereo not shown) [Example 55], 93%. On the same count and under the same terms, the figure for `Cc1cn(C)nc1CN(C)C(=O)c1cn2c(n1)CN(c1nc3c(c(NC4CCOCC4)n1)[S+]([O-])CC3)CC2` (stereo not shown) [Example 56] is 94%; for `Cc1nn(C)cc1CNC(=O)c1cn2c(n1)CN(c1nc3c(c(NC4CCOCC4)n1)[S+]([O-])CC3)CC2` (stereo not shown) [Example 57] it is 94%.
